US8980926B2, “2-aminoindole compounds and methods for the treatment of malaria” (Genzyme Corporation, priority 2009, dated 2015)
Like-named read-outs stand apart in the source and are kept apart here.

Legend:
P. falciparum strain 3D7 = experiment: In vitro potency against P. falciparum strain 3D7 (SYBR green/DAPI); assay type: cell-based; details: Plasmodium falciparum
[1] = system: Plasmodium falciparum strain Dd2; experiment: In vitro potency against P. falciparum strain Dd2; assay type: cell-based; details: read-out: Potency (IC50; nM) Plasmodium spp. Pf Dd2
[2] = Mammalian cytotoxicity, dermal fibroblast; assay type: cell-based; details: human, normal human dermal fibroblasts (Clonetics #CC-2509); read-out: Selectivity, Mammalian cytotoxicity (IC50; μM) Dermal Fibroblast
[3] = Mammalian cytotoxicity, kidney epithelial; assay type: cell-based; details: normal human renal proximal tubule cells; read-out: Selectivity, Mammalian cytotoxicity (IC50; μM) Kidney epithelial
Erythrocyte lysis = assay type: cell-based; details: erythrocytes, read-out: Selectivity, Mammalian cytotoxicity (IC50; μM) Eryth. Lysis
P. berghei N-clone = experiment: In vivo efficacy against P. berghei in mice (4-day suppressive test, oral); design: species or system P. berghei in Swiss Albino mice; details: for No. Cured: animals cured/group; for % Suppression Day 5: vs untreated controls; for Average Day of Recrudescence: Study Day; for Recrudescence (no. animals/total): no parasites on Day 5 but later regressed; for % of group without parasites: FIG. 3D; for cures: doses of 100-200 mg/kg/day
Source text: Because of ethical issues and costs, the acute P. berghei model in rodents is considered the “gold standard” for assessing anti-malarial efficacy in animal models. This model is adapted from Peters' “4-day suppressive test” (Peters, W. 1987. Chemotherapy and Drug Resistance in Malaria, p. 102-115, 2ed, vol. 1. Academic Press, Orlando, Fla.; Peters, W. 1975. The chemotherapy of rodent malaria, XXII. The value of drug-resistant strains of P. berghei in screening for blood schizontocidal activity. Ann Trop Med Parasitol 69:155-171). All studies were conducted in accordance with the Guide for the Care and Use of Laboratory Animals (National-Research-Council. 1996. Guide for the Care and Use of Laboratory Animals. National Academy Press, Washington, D.C.) and the PHS guidelines. Animals were maintained according to NIH guidelines and were allowed to acclimatize for 1 week prior to the commencement of studies. On Day 0, groups of 4-6-week old female Swiss Albino mice (n=5) were infected by tail vein injection with 0.2 ml heparinized blood diluted to contain 1×10^7 N-clone parasites. The aminoindole analogs were formulated in 1.6% lactic acid mixed sodium salt, 1% Tween 80, 9% ethanol and 20% Cerestar (hydroxypropyl β-cyclodextrin; Wacker Chimie) and were administered by oral gavage. […] Animals in the Control-group received vehicle alone. Dose concentration and frequency of dosing were based upon preliminary tolerability/exposure studies. On Day 4 post-infection (5th day of assay) blood was collected by tail-nick, and thin smear microscope slides were prepared and stained using Diff Quick®. Parasitized erythrocytes were counted and compared with the total number of erythrocytes per microscopic field to determine the percent parasitemia. A minimum of 350 erythrocytes were counted. Animals showing no detectable parasites on Day 4 were examined every 2-3 days to determine whether cure was sterile. Animals with no detectable parasites 28 days after cessation of dosing (Study Day 33) were considered cured.

P. knowlesi strain H1 = experiment: In vitro potency against P. knowlesi H1 in Rhesus blood cells (3H-hypoxanthine incorporation); assay type: cell-based; details: Plasmodium knowlesi, in Macaca mulatta, read-out: Potency (IC50; nM) Plasmodium spp. Pk H1
Description: Selected compounds were tested against P. knowlesi H1 strain parasites cultured in Rhesus blood cells as a surrogate for P. vivax infections using the method of Kocken and coworkers (Kocken, C. H., H. Ozwara, A. van der Wel, A. L. Beetsma, J. M. Mwenda, and A. W. Thomas. 2002. Plasmodium knowlesi provides a rapid in vitro and in vivo transfection system that enables double-crossover gene knockout studies. Infect Immun 70:655-660). Briefly, P. knowlesi were cultured in 2% Rhesus macaque erythrocytes (New England Primate Research Center) in RPMI culture media containing 10% Human O+ serum (Interstate Blood Bank). Schizont stage parasites were purified by floatation in 60% Percoll (GE life sciences) and allowed to reinvade to generate a synchronous population of ring stage parasites. Drug assays were performed by plating ring stage parasites at 0.5% parasitemia in triplicate, in RPMI containing 2.5 μg/ml hypoxanthine. Parasites were incubated for 24 hours with serially diluted test compounds. After 24 hours, thin smears were made to confirm that reinvasion had occurred, 0.5 μCi ^3H-labeled hypoxanthine (Perkin Elmer) were added to each well, and parasites were allowed to progress through S-phase to early schizonts. Cells were then harvested via glass filter plates and ^3H incorporation was measured by scintillation counting. Values were normalized to percentage of controls containing no drug, and IC50 values were generated (GraphPad Prism®).

hERG = target: T1, hERG (Homo sapiens, UniProt Q12809); experiment: hERG in Chinese hamster ovary cells; assay type: cell-based
T1 construct: expressed in transfected cells; host or cells: Chinese hamster ovary cells (from the earlier reading's assay name)

P. berghei ANKA strain = experiment: In vitro potency against P. berghei ANKA; assay type: cell-based; details: Plasmodium berghei, read-out: Potency (IC50; nM) Plasmodium spp. Pb ANKA
malaria = experiment: In vivo efficacy in an animal (rodent) model of malaria (FIGS. 1, 2); details: 50 mg/kg dose; FIGS. 2A and 2B
[4] = read-out: Potency (IC50; nM) Plasmodium spp. Pf 3D7
[5] = reductions in parasitemia, read-out: IC50 values

T1 sequence (Q12809 whole entry): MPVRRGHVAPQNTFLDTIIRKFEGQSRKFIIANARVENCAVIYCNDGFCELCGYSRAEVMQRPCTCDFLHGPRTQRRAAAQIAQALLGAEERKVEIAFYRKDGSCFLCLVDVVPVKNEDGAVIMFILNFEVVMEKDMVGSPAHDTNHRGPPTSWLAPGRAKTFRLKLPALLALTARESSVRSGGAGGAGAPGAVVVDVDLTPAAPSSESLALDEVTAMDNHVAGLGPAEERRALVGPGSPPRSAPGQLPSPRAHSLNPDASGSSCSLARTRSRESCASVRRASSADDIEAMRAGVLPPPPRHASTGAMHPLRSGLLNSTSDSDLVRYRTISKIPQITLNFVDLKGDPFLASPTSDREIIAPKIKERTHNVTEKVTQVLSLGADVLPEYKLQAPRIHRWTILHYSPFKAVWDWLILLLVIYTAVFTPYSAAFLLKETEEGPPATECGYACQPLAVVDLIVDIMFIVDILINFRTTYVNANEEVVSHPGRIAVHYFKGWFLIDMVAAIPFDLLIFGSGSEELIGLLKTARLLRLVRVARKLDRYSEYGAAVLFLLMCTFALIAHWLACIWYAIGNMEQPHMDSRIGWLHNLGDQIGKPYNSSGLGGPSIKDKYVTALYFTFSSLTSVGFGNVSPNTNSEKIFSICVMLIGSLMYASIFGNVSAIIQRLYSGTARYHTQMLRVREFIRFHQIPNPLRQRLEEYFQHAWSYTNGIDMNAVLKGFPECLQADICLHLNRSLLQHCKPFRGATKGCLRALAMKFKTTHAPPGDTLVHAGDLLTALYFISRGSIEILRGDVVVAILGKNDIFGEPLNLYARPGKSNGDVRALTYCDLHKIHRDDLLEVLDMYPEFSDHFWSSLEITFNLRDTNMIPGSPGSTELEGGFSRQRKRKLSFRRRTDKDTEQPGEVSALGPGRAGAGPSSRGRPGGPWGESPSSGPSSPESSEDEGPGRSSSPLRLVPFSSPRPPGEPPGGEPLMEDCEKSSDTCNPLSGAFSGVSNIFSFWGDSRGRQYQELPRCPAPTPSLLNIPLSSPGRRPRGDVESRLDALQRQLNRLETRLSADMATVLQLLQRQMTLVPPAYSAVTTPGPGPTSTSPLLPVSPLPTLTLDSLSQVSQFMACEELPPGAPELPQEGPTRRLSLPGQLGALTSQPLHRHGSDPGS

Compound | IC50 (P. falciparum strain 3D7; [4]) | IC50 (P. falciparum strain 3D7; [5]) | IC50 [1] | IC50 [2] | IC50 [3] | IC50 (Erythrocyte lysis) | No. Cured (P. berghei N-clone; 100 mg/kg/day b.i.d. p.o.) | % Suppression Day 5 (P. berghei N-clone; 100 mg/kg/day b.i.d. p.o.) | IC50 (P. knowlesi strain H1) | Average Day of Recrudescence (P. berghei N-clone; 100 mg/kg/day b.i.d. p.o.) | Recrudescence (no. animals/total) (P. berghei N-clone; 100 mg/kg/day b.i.d. p.o.) | IC50 (P. berghei ANKA strain) | also measured
COc1cc(C2(O)C(N)=Nc3ccc(Cl)cc32)c(OC)cn1 (stereo not shown) [Compound 202] | 21 nM | 1 to 100 nM | 81 nM | > 195 µM | > 195 µM | > 125 µM | 0/5 | 95% |  |  |  |  | Average Day of Recrudescence (P. berghei N-clone; 200 mg/kg/day b.i.d. p.o.): 17 days; No. Cured (P. berghei N-clone; 200 mg/kg/day b.i.d. p.o.): 0/5; Recrudescence (no. animals/total) (P. berghei N-clone; 200 mg/kg/day b.i.d. p.o.): 2/5; % Suppression Day 5 (P. berghei N-clone; 200 mg/kg/day b.i.d. p.o.): 98%
NC1=Nc2ccc(Cl)cc2C1(O)Cc1ccccc1 (stereo not shown) [Compound 38] | 38 nM | 1 to 100 nM | 110 nM | > 62.5 µM | > 62.5 µM | > 147 µM |  |  |  |  |  |  | 
CCOc1ccc(F)cc1C1(O)C(N)=Nc2ccc(Cl)cc21 (racemic) [Compound 142, 2-amino-5-chloro-3-(2-ethoxy-5-fluorophenyl)-3H-indol-3-ol] | 23 nM | 1 to 100 nM | 49 nM | > 195 µM | > 195 µM | > 125 µM | 0/5 | 99% | 38 nM | 11 days | 1/5 |  | Selectivity, hERG (μM) CHO (hERG): 21 µM; Average Day of Recrudescence (P. berghei N-clone; 200 mg/kg/day b.i.d. p.o.): 13 days; No. Cured (P. berghei N-clone; 200 mg/kg/day b.i.d. p.o.): 3/5; Recrudescence (no. animals/total) (P. berghei N-clone; 200 mg/kg/day b.i.d. p.o.): 1/5; % Suppression Day 5 (P. berghei N-clone; 200 mg/kg/day b.i.d. p.o.): 99%; % of group without parasites (P. berghei N-clone; day 5, 100/mg/kg/day): 20%; % of group without parasites (P. berghei N-clone; day 5, 200/mg/kg/day): 80%; % of group without parasites (P. berghei N-clone; day 30, 200/mg/kg/day): 60%; cures (P. berghei N-clone): able to affect cures
NC1=Nc2ccc(Cl)cc2C1(O)c1cccc2ccccc12 (stereo not shown) [Compound 11] | 30 nM | 1 to 100 nM | 37 nM | 24 µM | 24 µM | > 129 µM |  |  |  |  |  |  | 
CCOc1ccc(F)cc1[C@]1(O)C(N)=Nc2ccc(Cl)cc21 (stereo in doubt) [Compound 266] | 18 nM | 1 to 100 nM | 58 nM | > 195 µM | > 195 µM | > 125 µM | 0/5 | 81% |  |  |  | 342 nM | 
NC1=Nc2ccc(Cl)cc2[C@@]1(O)c1ccccc1 [Compound 2] | 665 nM | 100 to 500 nM | 1460 nM | > 242 µM | > 242 µM | > 155 µM |  |  |  |  |  | 1360 nM | No. Cured (P. berghei N-clone; 50 mg/kg/day b.i.d. p.o.): 0/5; % Suppression Day 5 (P. berghei N-clone; 50 mg/kg/day b.i.d. p.o.): 80%; in vivo efficacy (reducing parasitemia) (malaria): efficacious for reducing parasitemia
NC1=Nc2ccc(Cl)cc2[C@]1(O)c1ccccc1 [Compound 3] | 313 nM | 100 to 500 nM | 675 nM | > 242 µM | > 242 µM | > 155 µM | 5/5 | 100% |  |  |  | 1690 nM | Average Day of Recrudescence (P. berghei N-clone; 50 mg/kg/day b.i.d. p.o.): 12 days; No. Cured (P. berghei N-clone; 50 mg/kg/day b.i.d. p.o.): 2/5; Recrudescence (no. animals/total) (P. berghei N-clone; 50 mg/kg/day b.i.d. p.o.): 3/5; % Suppression Day 5 (P. berghei N-clone; 50 mg/kg/day b.i.d. p.o.): 100%; cures (P. berghei N-clone): able to affect cures; in vivo efficacy (reducing parasitemia) (malaria): efficacious for reducing parasitemia; in vivo efficacy (treatment of malaria) (malaria): effectively treated malaria
CC(C)C1(O)C(N)=Nc2ccc(Cl)cc21 (stereo not shown) [Compound 39] | 108 nM | 100 to 500 nM | 347 nM | > 62.5 µM | > 62.5 µM | > 178 µM | 0/5 | 99% | 190 nM | 13 days | 3/5 | 2990 nM | Average Day of Recrudescence (P. berghei N-clone; 50 mg/kg/day b.i.d. p.o.): 10 days; No. Cured (P. berghei N-clone; 50 mg/kg/day b.i.d. p.o.): 0/5; Recrudescence (no. animals/total) (P. berghei N-clone; 50 mg/kg/day b.i.d. p.o.): 3/5; % Suppression Day 5 (P. berghei N-clone; 50 mg/kg/day b.i.d. p.o.): 98%
CC(C)Oc1ccccc1C1(O)C(N)=Nc2ccc(Cl)cc21 (stereo not shown) [Compound 146] | 22 nM | 1 to 100 nM | 37 nM | > 188 µM | > 188 µM | > 120 µM | 0/5) | 99% | 90 nM | 6 days | 1/5 |  | Selectivity, hERG (μM) CHO (hERG): 19 µM
Cc1ccc2c(c1)C(O)(c1ccccc1)C(N)=N2 (stereo not shown) [Compound 37] | 183 nM | 1 to 100 nM | 455 nM | > 62.5 µM | > 62.5 µM | > 168 µM | 3/5 | 100% | 318 nM | 17 days | 2/5 |  | No. Cured (P. berghei N-clone; 200 mg/kg/day b.i.d. p.o.): 5/5; % Suppression Day 5 (P. berghei N-clone; 200 mg/kg/day b.i.d. p.o.): 100%; cures (P. berghei N-clone): able to affect cures
CC(C)CC1(O)C(N)=Nc2ccc(Cl)cc21 (stereo not shown) [Compound 54] |  | 100 to 500 nM |  |  |  |  |  |  |  |  |  |  | 
CC(C)c1ccccc1CC1(O)C(N)=Nc2ccc(Cl)cc21 (stereo not shown) [Compound 168] |  | 1 to 100 nM |  |  |  |  |  |  |  |  |  |  | 
NC1=Nc2ccccc2C1(O)c1ccc(N2CCOCC2)cc1 (stereo not shown) [Compound 20] |  | 500 to 1000 nM |  |  |  |  |  |  |  |  |  |  | 
